Columns and labels:
[1] = test system: P. falciparum 3D7[hGrx1-roGFP2] cytosolic glutathione-dependent redox potential; assay: Cytosolic glutathione redox sensor hGrx1-roGFP2, confocal live cell imaging (CLSM); assay type: cell-based, Plasmodium falciparum; settings: 24 h incubation, approximately 4 × EC50
Protocol: A Leica confocal system TCS SP5 inverted microscope equipped with the objective HCX PL APO 63.0 × 1.30 GLYC 37 °C UV connected to a 37 °C temperature chamber was used. The argon laser power was set to 20%; scanning was performed at 400 Hz frequency and at a 512 × 512 pixel resolution. The smart gain and smart offset were 950 V and −0.9%, respectively. With a sequential scan, the hGrx1–roGFP2 probe was excited at 405 nm and at 488 nm and emission was detected at 500–550 nm. Laser intensity was adjusted to match the full dynamic range of the probe to the dynamic range of the detector (405 nm: 10%, 488 nm: 4%). […] The Leica LAS AF Lite software for fluorescence analysis was used. The 405/488 nm ratio was calculated. The graphs were plotted using the GraphPad Prism 5 software (San Diego, CA, USA). For live cell imaging, only parasites showing fluorescent signals at both 405 and 488 nm excitation and an intact host cell were chosen.
The effect of ML304 and the anti-malarial drugs ATS and CQ as reference drugs on P. falciparum were investigated in 4 h and 24 h incubation experiments. […] For 4 h experiments, trophozoite stage parasites (26–30 h) of 3D7^[hGrx1–roGFP2] and NF54^[hGrx1–roGFP2] (6–8% parasitaemia) were magnetically enriched (Miltenyi Biotec, Germany), counted by using a Neubauer hemocytometer (Brand GmbH, Germany), and returned to cell culture (at 2.0 × 10^4 trophozoites μL^−1) for at least 1 h to recover. 1.0 × 10^6 cells in 100 μL cell culture medium were placed into LoBind tubes (Eppendorf, Hamburg, Germany) for 4 h incubation experiments. The parasites were treated with ML304 at 1 μM, 50 μM, and 100 μM, or with the anti-malarial drugs ATS and CQ at approximately 50 × EC50 for 4 h under cell culture conditions. Subsequently, free thiol groups were blocked with 2 mM N-ethylmaleimide (NEM) for 15 min at 37 °C. For 24 h experiments, a 5 mL culture (5% haematocrit, 6–8% parasitaemia) of ring stage parasites (6–10 h post invasion) was treated with ML304 at 1 μM, 5 μM, and 10 μΜ, or the anti-malarial drugs ATS and CQ at approximately 4 × EC50. Prior to enrichment, cysteines were blocked with 2 mM NEM for 15 min at 37 °C. For 4 h and 24 h experiments, cells were washed after incubation and resuspended in Ringer’s solution (122.5 mM NaCl, 5.4 mM KCl, 1.2 mM CaCl2, 0.8 mM MgCl2, 11 mM D-glucose, 25 mM HEPES, 1 mM NaH2PO4, pH 7.4). 50 μL of cells (1.0 × 10^6 cells 50^−1 μL^−1) were seeded onto poly-L-lysine-coated μ-Slides 18 well (flat) (Ibidi, Martinsried, Germany) and measured using CLSM (confocal laser scanning microscopy) with excitation wavelengths at 405 nm and 488 nm. […] Each experiment was carried out three times. Between 10 and 20 microscopy images were taken each time, resulting in at least 30 experimental values per concentration and incubation time. The obtained ratio values were normalized to the control value, which was set to 100. All experiments were carried out within 6 weeks after the appearance of transfectants. Mean and standard error of the mean (SEM) are shown. A one-way ANOVA test with 95% confidence intervals with the Dunnett’s multiple comparison test (GraphPad Prism 5.0) was applied for statistical analysis of significance (*p < 0.05; **p < 0.01; ***p < 0.001).

recombinant hGrx1-roGFP2 = molecular target: T1, recombinant hGrx1-roGFP2 (Homo sapiens, UniProt P35754); assay: In vitro interaction with recombinant hGrx1-roGFP2 probe; assay type: biochemical; settings: at the concentrations used in this study
T1 construct: made in house
Protocol: The sensor hGrx1–roGFP2 (human glutaredoxin 1-reduction–oxidation sensitive green fluorescent protein 2) was recently transiently expressed in 3D7 P. falciparum parasites by using the pARL1a(+) expression vector. Heterologous overexpression of hGrx1–roGFP2 for the evaluation of the in vitro interactions of ML304 and anti-malarial drugs with the recombinant redox probe was performed according to [35].
ML304 was used at concentrations of 10 nM to 1 mM in degassed standard reaction buffer (100 mM potassium phosphate, 1 mM EDTA, pH 7.0). […] The characterization of the in vitro interaction of hGrx1–roGFP2 with ML304 was performed according to Schuh et al..

P. falciparum 3D7 = settings: determined previously; cited from earlier work
[2] = molecular target: PfPrx1a (Plasmodium falciparum); assay: non-reducing SDS-PAGE with western blot; recombinant PfPrx1a (positive control) after incubation with GSSG, SDS-PAGE without DTT, anti-glutathione western blot and Ponceau staining
PvG6PD = PvG6PD (Plasmodium vivax, UniProt A5K3M1); assay: PvG6PD enzyme inhibition assay (NADPH formation, absorbance 340 nm / fluorescence); assay type: biochemical; settings: for Type of inhibition of PvG6PD: with respect to both G6P and NADP+
Protocol: The G6PD activity of PfGluPho variants was measured spectrophotometrically as described for the wt enzyme. Kinetic characterization of PvG6PD was performed using the same assay system at an Evolution 300 spectrophotometer (Thermo Scientific, Dreieich, Germany). In brief, the initial reduction of NADP^+ to NADPH by PvG6PD was monitored by measuring the absorbance at 340 nm. The 500 µL reaction mixture contained 200 µM NADP^+ and varying concentrations of PvG6PD in an assay buffer of 100 mM Tris–HCl, pH 8.0, 10 mM MgCl2, and 0.5 mM EDTA at 25 °C. The reaction was started by adding 800 µM G6P. The KM for NADP^+ was determined by titrating NADP^+ from 2 to 400 µM at 800 µM G6P; the KM for G6P was measured accordingly by titrating G6P from 2 to 1200 µM at 200 µM NADP^+. KM values were calculated using GraphPad Prism. Since the KM for G6P was considerably higher than the value measured for PfGluPho [14], a concentration of 800 µM G6P was defined as substrate saturation for PvG6PD.
To identify potential inhibitors of PvG6PD, compounds with already known effects on PfGluPho (ellagic acid and derivatives, ML304) were tested. Additionally, several compound libraries of the Helmholtz Center for Infection Research, Brunswick, were screened against PfGluPho using the high-throughput-compatible assay systems described in Preuss et al.. […] Based on structure-activity relationship studies, a set of new potential G6PD inhibitors (Fig. 8) was then synthesized and assessed. First, the IC50 values of the compounds were determined, followed by mechanistic characterization of the mode of action. To test for selectivity of the compounds, the IC50 values of the compounds on PvG6PD, PfGluPho, and hG6PD were determined in parallel.
All measurements were performed in 96-well plates, half area (Greiner Bio-One, Frickenhausen, Germany) using a Tecan Infinite M200 plate reader (Maennedorf, Switzerland). The compounds were dissolved in 100% DMSO and afterwards diluted in assay buffer to the required concentrations. Different compound concentrations were added to a mixture of enzyme and NADP^+ in assay buffer. Concentrations of substrates differed depending on the enzyme; an overview is given in the Additional file 4. The reaction was started by adding G6P, and the increase of NADPH was monitored by measuring the absorbance at 340 nm. To increase the sensitivity of the assay, some measurements were reproduced, detecting the fluorescence of NADPH at ex340/em460. […] A negative control containing no compound was defined as 0% inhibition; a positive control lacking the substrate G6P was defined as 100% inhibition. For evaluations using GraphPad Prism and Microsoft Excel, only a linear increase in absorbance/fluorescence was considered. For the mechanistic characterization of the compounds, either NADP^+ or G6P were titrated at different compound concentrations around the IC50, while keeping the second substrate in saturation. The initial slope was plotted as Michaelis–Menten curves and Lineweaver–Burk plots using GraphPad Prism; KM values and Vmax were calculated with GraphPad Prism software.

PfGluPho = molecular target: T2, PfGluPho (Plasmodium falciparum, UniProt Q8IKU0); settings: cited from earlier work
T2 construct: made in house
T2 sequence (Q8IKU0 1-910): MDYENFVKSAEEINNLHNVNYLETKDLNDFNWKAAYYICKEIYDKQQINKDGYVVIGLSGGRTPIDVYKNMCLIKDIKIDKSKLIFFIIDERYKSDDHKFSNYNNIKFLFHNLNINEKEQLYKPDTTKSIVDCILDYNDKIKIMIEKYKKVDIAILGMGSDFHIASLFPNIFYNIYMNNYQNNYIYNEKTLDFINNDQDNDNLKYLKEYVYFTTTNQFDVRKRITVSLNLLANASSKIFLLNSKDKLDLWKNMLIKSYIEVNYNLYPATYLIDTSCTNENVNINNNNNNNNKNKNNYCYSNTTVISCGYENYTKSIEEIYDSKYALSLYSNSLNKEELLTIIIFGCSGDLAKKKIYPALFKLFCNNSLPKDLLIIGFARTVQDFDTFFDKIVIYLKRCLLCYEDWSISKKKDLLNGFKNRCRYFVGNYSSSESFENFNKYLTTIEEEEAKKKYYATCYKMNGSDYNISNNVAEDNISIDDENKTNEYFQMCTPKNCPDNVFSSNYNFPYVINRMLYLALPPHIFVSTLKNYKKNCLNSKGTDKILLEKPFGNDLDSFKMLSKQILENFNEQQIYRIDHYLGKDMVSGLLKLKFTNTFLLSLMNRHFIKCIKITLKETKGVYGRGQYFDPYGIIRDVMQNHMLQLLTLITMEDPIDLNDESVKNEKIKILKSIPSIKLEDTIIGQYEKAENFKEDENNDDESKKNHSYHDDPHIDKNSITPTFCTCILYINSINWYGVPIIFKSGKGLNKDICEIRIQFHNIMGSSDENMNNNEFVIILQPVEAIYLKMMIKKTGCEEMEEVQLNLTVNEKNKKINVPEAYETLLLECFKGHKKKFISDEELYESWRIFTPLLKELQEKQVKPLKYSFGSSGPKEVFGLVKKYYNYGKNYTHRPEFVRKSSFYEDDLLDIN

hG6PD = molecular target: T3, hG6PD (Homo sapiens, UniProt P11413); settings: ellagic acid; read-out: IC50 for hG6PD; cited from earlier work
T3 construct: made in house

[3] = test system: Plasmodium yoelii strain overproducing GSH; set-up: method as in PMID 23029306; settings: cited from earlier work
P. falciparum strains = settings: cited from earlier work
[4] = cited from earlier work
[5] = molecular target: the molecule itself; assay: SEC; gel filtration chromatography of purified PvG6PD under reducing conditions; single peak of approximately 389 kDa

T3 sequence (P11413 whole entry): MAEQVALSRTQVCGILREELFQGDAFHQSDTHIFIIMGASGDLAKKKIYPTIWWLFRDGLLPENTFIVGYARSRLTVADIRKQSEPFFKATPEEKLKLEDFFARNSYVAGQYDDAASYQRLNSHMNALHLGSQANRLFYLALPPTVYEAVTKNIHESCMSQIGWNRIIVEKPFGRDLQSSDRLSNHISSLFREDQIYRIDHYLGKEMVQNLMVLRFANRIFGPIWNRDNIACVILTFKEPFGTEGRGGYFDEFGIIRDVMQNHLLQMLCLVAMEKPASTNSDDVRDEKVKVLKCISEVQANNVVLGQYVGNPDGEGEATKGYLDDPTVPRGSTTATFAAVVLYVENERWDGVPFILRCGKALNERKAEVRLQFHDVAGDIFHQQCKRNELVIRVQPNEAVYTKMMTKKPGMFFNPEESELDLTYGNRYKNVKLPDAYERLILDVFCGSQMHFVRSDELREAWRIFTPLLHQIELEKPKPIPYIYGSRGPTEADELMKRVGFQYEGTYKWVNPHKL

Molecule: CCN(CC)CCCC(C)Nc1ccnc2cc(Cl)ccc12 (stereo not drawn) [CQ, chloroquine]
- Increase of redox ratio (405/488 nm) [1]: 1.5 fold
- Direct interaction with recombinantly purified hGrx1-roGFP2 probe (recombinant hGrx1-roGFP2): excluded a direct interaction
- EC50 (P. falciparum 3D7): 8.6 nM

Molecule: C[C@@H]1CC[C@H]2[C@@H](C)C(=O)O[C@@H]3O[C@@]4(C)CC[C@@H]1[C@]32OO4 [ATS, artemisinin]
- Increase of redox ratio (405/488 nm) [1]: hardly affected
- Direct interaction with recombinantly purified hGrx1-roGFP2 probe (recombinant hGrx1-roGFP2): excluded a direct interaction
- EC50 (P. falciparum 3D7): 4.4 nM

Molecule: PfPrx1a (enzyme)
- stoichiometry N [2]: 2

Molecule: O=c1oc2c(O)c(O)cc3c(=O)oc4c(O)c(O)cc1c4c23 [ellagic acid]
- IC50 (PvG6PD): 32.5 ± 13.4 nM
- Type of inhibition of PvG6PD (PvG6PD): mixed type inhibitor
- Type of inhibition of PvG6PD (PvG6PD; listed as EA): mixed type inhibition
- IC50 (PfGluPho; ellagic acid, read-out: IC50 on PfGluPho): 77 ± 22 nM
- Type of inhibition of PfGluPho (PfGluPho; with respect to both G6P and NADP+): mixed type inhibition
- IC50 (hG6PD): 102 ± 39 nM
- Sensitivity of GSH-overproducing P. yoelii strain versus wt [3]: five times less sensitive
- Interaction with chloroquine, atovaquone, mefloquine, and artesunate (P. falciparum strains): synergistic effects
- Haemolytic effects ([4]; mice): no observable haemolytic effects
- Overall toxicity in mice ([4]; mouse, in vivo): low

B1: Plasmodium vivax glucose 6-phosphate dehydrogenase (PvG6PD), C-terminal part (aa 310-927) of PvGluPho (domain or fragment, UniProt A5K3M1 310-927, looked up)
chain: LNRRECLTIIVFGCSGDLAKKKIYPAIFKLFCNKRLPKDLLIVGFARTAQSFDSFFDKIVGYLKRCLHSYEDLSLTQKKDLLNCFKNKCRYYIGDYSSSESFERFNKYLTQLERENLIGTAPTSWAAAAGNASFANDTDKVEHHPDEAILAKGTGAATPGEAPGGANGPATHGEAHGGANGLSTPMQGKAVPTDDTSDEGHSGANHPFAINRILYLALPPHIFVSTLKNYKKNCQNGNGTDKILLEKPFGKDLQTFKVLSKQILENFNEEHIYRIDHYLGKDMVSGLLKLKFTNTFLLSLMNRHFIKCIKITLKETKGVYGRGQYFDPYGIIRDVMQNHMLQLLALITMEDPIDLNDESVKNEKIKILKCIQSIKLDNTIIGQYVKSENYQEEKNLSAPPSDDHPVDESKRNHSYHDDPHIDSNSITPTFCTCILYINSINWYGVPIIFKAGKGLNKDICEIRLQFHNIMGSSDESMYNNEFVIILQPVEVIYLKMMIKKTGCEEMEEVQLNLTVNHKNKKNYVPEAYETLLLECFRGFKKKFISDEELYESWRIFTPLLNELQEKKVQPLKYPFGSSGPKEVYDLVKKYYNYGKNYANTPAFVRKSSFYEDDLLDIN
notes: glucose 6-phosphate dehydrogenase 6-phosphogluconolactonase (PvGluPho) of Plasmodium vivax, PlasmoDB PVX_117790; G6PD part, aa 310-927 (bp 930-2784); Calculated mass of the His-tagged protein 71.9 kDa; also called P. vivax G6PD; source: E. coli M15 with pRAREII (pQE30 vector), purified (Ni-NTA, size exclusion chromatography); not shown: His6, N-terminal, kept
- stoichiometry N [5]: 6

Reference: article PMC6346587, “Glucose 6-phosphate dehydrogenase 6-phosphogluconolactonase: characterization of the Plasmodium vivax enzyme and inhibitor studies” (Malaria Journal, 2019)
